Where two headings read alike, the source gives them in different places.
What was measured:
MKK4 [1] = target: T1, MKK4 (Homo sapiens, UniProt P45985); assay: KINOMEscan competition binding assay, MKK4; details: residual percent of control binding (PoC) at 100 nM
T1 construct: S84/D399; host or cells: HEK-293
T1 sequence (P45985 84-399): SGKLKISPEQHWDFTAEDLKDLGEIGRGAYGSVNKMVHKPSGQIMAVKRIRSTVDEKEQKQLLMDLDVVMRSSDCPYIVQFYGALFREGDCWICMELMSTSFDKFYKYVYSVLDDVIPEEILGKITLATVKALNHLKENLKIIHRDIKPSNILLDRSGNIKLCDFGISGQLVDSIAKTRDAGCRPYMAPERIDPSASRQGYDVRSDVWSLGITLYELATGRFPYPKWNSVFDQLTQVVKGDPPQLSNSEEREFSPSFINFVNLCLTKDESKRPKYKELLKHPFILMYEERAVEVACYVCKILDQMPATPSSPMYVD
Description: (§1) The assay was performed by combining three components: DNA-tagged kinase; immobilized ligand; and a test compound. The ability of the test compound to compete with the immobilized ligand was measured via quantitative PCR of the DNA tag. The technology is described in detail in Fabian, M. A. et al. A small molecule-kinase interaction map for clinical kinase inhibitors. Nat. […] Nat.
(§2) For investigation of the affinity to MKK4, BRaf, MKK7 and JNK1, the kinases were produced in HEK-293 cells and subsequently tagged with DNA for qPCR detection. […] The liganded beads were blocked with excess biotin and washed with blocking buffer (SEABLOCK™ (Pierce), 1% BSA, 0.05% TWEEN®20, 1 mM DTT) to remove unbound ligand and to reduce nonspecific binding. […] All reactions were performed in polystyrene 96-well plates in a final volume of 0.135 mL. […] The kinase concentration in the eluates was measured by qPCR.
(§3) The test compounds were provided as 10 mM stock solutions. The test solutions at indicated final concentrations were prepared at DiscoverX.
Potency of representative examples against the protein kinases MKK4, BRaf, MKK7 and JNK1 expressed as residual percent of control binding (PoC), was determined at a concentration of 100 nM. The determined potencies are categorized as follows: […]

BRaf = target: T2, BRaf (Homo sapiens, UniProt P15056); assay: KINOMEscan competition binding assay, BRaf; details: ratio PoC (off-target)/PoC (MKK4)
T2 construct: purchased ProQinase GmbH, Freiburg, Germany (33PanQinase Assay Service)
Description: as §1, §2, §3
(§4) Potency of representative examples against the protein kinases MKK4, BRaf, MKK7 and JNK1 expressed as residual percent of control binding (PoC), was determined at a concentration of 100 nM. The determined potencies are categorized as follows:
(§5) The binding selectivity of representative examples against the protein kinases BRaf, MKK7 and JNK1, altogether denominated as “off-targets” is determined by the ratios of PoC (off-target)/PoC (MKK4).

MKK4 [2] = target: T3, MKK4 (Homo sapiens, UniProt P45985); assay: 33PanQinase enzyme assay, MKK4; type: biochemical; details: read-out: Potency MKK4 (residual activity, assay at single concentration)
T3 construct: purchased ProQinase GmbH, Freiburg, Germany (33PanQinase Assay Service)
T3 sequence (P45985 1-399): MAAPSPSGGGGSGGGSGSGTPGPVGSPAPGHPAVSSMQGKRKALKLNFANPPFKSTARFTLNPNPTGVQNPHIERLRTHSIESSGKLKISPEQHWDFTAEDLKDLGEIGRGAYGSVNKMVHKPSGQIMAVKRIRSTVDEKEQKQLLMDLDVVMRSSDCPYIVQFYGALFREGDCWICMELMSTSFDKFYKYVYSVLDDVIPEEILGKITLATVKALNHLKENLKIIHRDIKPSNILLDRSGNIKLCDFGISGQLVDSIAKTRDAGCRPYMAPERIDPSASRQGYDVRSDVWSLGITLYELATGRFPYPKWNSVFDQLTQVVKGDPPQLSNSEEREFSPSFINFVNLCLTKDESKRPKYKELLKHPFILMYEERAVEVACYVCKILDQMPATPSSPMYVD
Summary of the method: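 Inhibition measured as 33Pi transfer to substrate after a 60-min, 30 °C reaction, acid-stopped and scintillation-counted.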

MKK7 = target: T4, MKK7 (Homo sapiens, UniProt O14733); assay: KINOMEscan competition binding assay, MKK7; parameters: M1/R419; host or cells: HEK-293; details: ratio PoC (off-target)/PoC (MKK4)
T4 sequence (O14733 1-419): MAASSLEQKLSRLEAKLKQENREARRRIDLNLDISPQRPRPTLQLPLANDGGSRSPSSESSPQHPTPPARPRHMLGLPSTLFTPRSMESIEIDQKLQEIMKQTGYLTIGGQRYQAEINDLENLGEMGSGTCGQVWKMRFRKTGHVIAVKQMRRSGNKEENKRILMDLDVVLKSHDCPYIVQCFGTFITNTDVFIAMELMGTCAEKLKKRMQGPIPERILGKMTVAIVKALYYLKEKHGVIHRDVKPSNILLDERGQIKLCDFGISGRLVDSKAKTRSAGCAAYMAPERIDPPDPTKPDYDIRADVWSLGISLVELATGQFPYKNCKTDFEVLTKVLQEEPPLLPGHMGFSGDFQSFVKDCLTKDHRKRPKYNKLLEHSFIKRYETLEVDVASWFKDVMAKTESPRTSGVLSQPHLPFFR
Description: as §1, §2, §3, §4, §5

JNK1 = JNK1 (Homo sapiens, UniProt P45983); assay: KINOMEscan competition binding assay, JNK1; parameters: M1/Q384; host or cells: HEK-293; details: ratio PoC (off-target)/PoC (MKK4)
Description: as §1, §2, §3, §4, §5

JNK1, sequence (P45983 1-384 isoform P45983-2): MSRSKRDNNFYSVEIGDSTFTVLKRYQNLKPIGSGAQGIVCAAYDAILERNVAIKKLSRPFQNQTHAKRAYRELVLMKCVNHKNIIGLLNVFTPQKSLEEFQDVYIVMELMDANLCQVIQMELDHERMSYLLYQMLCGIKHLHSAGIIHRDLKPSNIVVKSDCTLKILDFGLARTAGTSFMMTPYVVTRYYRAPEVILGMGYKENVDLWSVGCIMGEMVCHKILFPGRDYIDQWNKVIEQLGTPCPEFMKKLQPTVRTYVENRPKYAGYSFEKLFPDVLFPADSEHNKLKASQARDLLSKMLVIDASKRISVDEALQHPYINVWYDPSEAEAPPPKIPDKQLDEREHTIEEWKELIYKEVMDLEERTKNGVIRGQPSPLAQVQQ
T2 sequence (P15056 whole entry, species assumed): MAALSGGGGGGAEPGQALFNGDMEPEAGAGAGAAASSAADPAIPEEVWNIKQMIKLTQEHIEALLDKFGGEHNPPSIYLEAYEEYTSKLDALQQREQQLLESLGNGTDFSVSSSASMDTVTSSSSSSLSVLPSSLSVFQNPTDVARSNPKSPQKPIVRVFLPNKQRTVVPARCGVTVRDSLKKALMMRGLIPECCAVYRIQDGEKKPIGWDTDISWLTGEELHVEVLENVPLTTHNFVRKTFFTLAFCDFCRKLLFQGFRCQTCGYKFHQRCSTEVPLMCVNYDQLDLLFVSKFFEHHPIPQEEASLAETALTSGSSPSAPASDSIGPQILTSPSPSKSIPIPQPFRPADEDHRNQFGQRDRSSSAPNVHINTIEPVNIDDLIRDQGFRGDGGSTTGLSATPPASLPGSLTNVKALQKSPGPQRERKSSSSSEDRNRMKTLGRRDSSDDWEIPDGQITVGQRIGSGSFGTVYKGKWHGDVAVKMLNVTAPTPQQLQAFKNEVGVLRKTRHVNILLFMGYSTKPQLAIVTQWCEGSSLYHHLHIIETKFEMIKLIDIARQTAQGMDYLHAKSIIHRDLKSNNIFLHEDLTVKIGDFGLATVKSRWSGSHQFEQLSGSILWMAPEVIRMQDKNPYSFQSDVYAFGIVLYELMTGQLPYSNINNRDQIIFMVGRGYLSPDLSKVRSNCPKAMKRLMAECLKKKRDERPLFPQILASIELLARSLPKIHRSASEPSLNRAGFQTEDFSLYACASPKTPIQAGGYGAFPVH

| SMILES | MKK4 [% Ctrl @ 100 nM (MKK4 [1]) | selectivity based on % Ctrl @100 nM vs. Braf (BRaf) | remaining activity at 0.1 µM (MKK4 [2]; single concentration 100 nM) | selectivity based on % Ctrl @100 nM vs. MKK7 (MKK7) | selectivity based on % Ctrl @100 nM vs. JNK1 (JNK1) | remaining activity at 0.1 µM (MKK4 [2]) |
| --- | --- | --- | --- | --- | --- | --- |
| CCCS(=O)(=O)Nc1ccc(F)c(C(=O)c2c[nH]c3ncc(-c4ccc(F)cc4F)cc23)c1F [Example 33, N-(3-(5N-(2,4-difluorophenyl)-1H-pyrrolo[2,3-b]pyridine-3-carbonyl)-2,4-difluorophenyl)propane-1-sulfonamide] | + (3 ≤ PoC < 30) | ++ (100 ≥ ratio > 10) | 70 to 90% | ++ (100 ≥ ratio > 10) | ++ (100 ≥ ratio > 10) | – |
| CCCS(=O)(=O)Nc1ccc(F)c(C(=O)c2c[nH]c3ncc(-c4ccccc4F)cc23)c1F [Example 34, N-(2,4-difluoro-3-(5-(2-fluorophenyl)-1H-pyrrolo[2,3-b]pyridine-3-carbonyl)phenyl)propane-1-sulfonamide] | + (3 ≤ PoC < 30) | ++ (100 ≥ ratio > 10) | 70 to 90% | ++ (100 ≥ ratio > 10) | ++ (100 ≥ ratio > 10) | – |
| Cc1cccc(CS(=O)(=O)Nc2ccc(F)c(C(=O)c3c[nH]c4ncc(-c5ccc(Cl)cc5)cc34)c2F)c1 [Example 37, N-(3-(5-(4-chlorophenyl)-1H-pyrrolo[2,3-b]pyridine-3-carbonyl)-2,4-difluoro-phenyl)-1-(m-tolyl)methanesulfonamide] | + (3 ≤ PoC < 30) | + (10 ≥ ratio > 3) | – | + (10 ≥ ratio > 3) | + (10 ≥ ratio > 3) | 70 to 90% |
| Cc1ccc(CS(=O)(=O)Nc2ccc(F)c(C(=O)c3c[nH]c4ncc(-c5ccc(Cl)cc5)cc34)c2F)cc1 [Example 38, N-(3-(5-(4-chlorophenyl)-1H-pyrrolo[2,3-b]pyridine-3-carbonyl)-2,4-difluoro-phenyl)-1-(p-tolyl)methanesulfonamide] | + (3 ≤ PoC < 30) | + (10 ≥ ratio > 3) | – | + (10 ≥ ratio > 3) | + (10 ≥ ratio > 3) | 70 to 90% |
| O=C(c1c(F)ccc(NS(=O)(=O)Cc2ccccc2)c1F)c1c[nH]c2ncc(-c3ccc(OCC(O)CO)cc3)cc12 (stereo not drawn) [Example 40, N-(3-(5-(4-(2,3-dihydroxypropoxy)phenyl)-1H-pyrrolo [2,3-b]pyridine-3-carbonyl)-2,4-difluorophenyl)-1-phenylmethanesulfonamide] | +++ (PoC < 1) | +++ (Ratio > 100) | 70 to 90% | +++ (Ratio > 100) | +++ (Ratio > 100) | – |
| O=C(c1c(F)ccc(NS(=O)(=O)Cc2ccccc2)c1F)c1c[nH]c2ncc(-c3ccc(OCC(O)CO)cc3Cl)cc12 (stereo not drawn) [Example 41, N-(3-(5-(2-chloro-4-(2,3-dihydroxypropoxy)phenyl)-1H-pyrrolo[2,3-b]pyridine-3-carbonyl)-2,4-difluorophenyl)-1-phenylmethane-sulfonamide] | ++ (1 ≤ PoC < 3) | ++ (100 ≥ ratio > 10) | 70 to 90% | ++ (100 ≥ ratio > 10) | ++ (100 ≥ ratio > 10) | – |

— patent US11912701B2, “Protein kinase inhibitors for promoting liver regeneration or reducing or preventing hepatocyte death” (HEPAREGENIX GMBH, priority 2018, dated 2024)
